In this assay the test system is Raphidocelis subcapitata. Description: Algal growth inhibition by lactam (absorbance at 680 nm of algal cultures in 6-well plates). Format: cell-based. As for the experimental part: The freshwater algae Raphidocelis subcapitata was purchased from Culture Collection of Algae and Protozoa (CCAP 278/4). The algae was cultivated in commercial Gibco BG-11 Media. A bespoke built UV exposure cabinet was used for cultivation. The UV bulbs were replaced by light bulbs (Osram L 8W I535 white). The experiments were performed in sterile 6-well microtiter plates made from polystyrene under static conditions and room temperature. The light-dark cycle was 9 h dark and 15 h light. The quantification was done spectrophotometrically in the 6-well plate by using absorbance measurements. A wavelength scan was done to measure the absorbance maximum of the algaea. […] Since the algaea tend to sediment the plate was obitally shaken to bring the cells in suspension before measuring. Measuring was performed using a Varioscan plate reader for microtiter plates.
In this experiment, the algal cultures were treated with lactam at levels of 10 μM to 200 μM as well as two control plates, one untreated, and one treated with solvent (DMSO) only. The specific levels of lactam measured were 10 μM, 20 μM, 30 μM, 40 μM, 50 μM, 100 μM, 150 μM, 200 μM would equate to levels of from 2 ppm (10 μM) to 40 ppm (200 μM), and to wt. % of 0.0002 wt. % (10 μM) to 0.004 wt. % (200 μM). The lactam was provided in a DMSO solvent to the plates. The rate of growth of the algal culture was measured after 12 days by absorbance value.
In this experiment, the algal cultures were treated with lactam at levels of 0.01 μM to 10 μM as well as two control plates, one untreated, and one treated with solvent (DMSO) only. The specific levels of lactam measured were 0.01 μM, 0.1 μM, 1 μM, 10 μM, this would equate to levels of from 0.002 ppm also defined as 2 ppb (0.01 μM) to 2 ppm (10 μM), and to wt. % of 0.0000002 wt. % (0.01 μM) to 0.0002 wt. % (10 μM). The lactam was provided in a DMSO solvent to the plates. The rate of growth of the algal culture was measured after 6 days by absorbance value.

Structures are written as SMILES.

The values that follow come from patent publication US12384923B2, “Method of treatment of a surface” (Conopco, Inc., priority 2018, dated 2025).

On to `C=C1NC(=O)C=C1c1ccc(Cl)cc1` [4-(4-chlorophenyl)-5-methylene-pyrrol-2-one], for which the “Absorbance (680 nm)” value runs as follows: (Example 2, lactam 10 μM, after 12 days) 0.1; (Example 2, lactam 20 μM, after 12 days) 0.1; (Example 2, lactam 30 μM, after 12 days) 0.1; (Example 2, lactam 40 μM, after 12 days) 0.1; (Example 2, lactam 50 μM, after 12 days) 0.1; (Example 2, lactam 100 μM, after 12 days) 0.1. The “Absorbance (680 nm)” value runs as follows: (Example 2, lactam 150 μM, after 12 days) 0.1; (Example 2, lactam 200 μM, after 12 days) 0.1; (Example 3, lactam 0.01 μM, after 6 days) 0.8; (Example 3, lactam 0.1 μM, after 6 days) 0.9; (Example 3, lactam 1 μM, after 6 days) 0.9; (Example 3, lactam 10 μM, after 6 days) 0.1. The “algal growth inhibition (in words)” value reads like this: (Example 2, lactam level of 10 μM (0.0002 wt. %) and above, 12 days) “very effective algal growth inhibition”; (Example 3, lactam 1 μM, 6 days) “no algal growth inhibition was seen”; (Example 3, lactam amount even lower than 1 μM (0.1 μM, 0.01 μM), 6 days) “no algal growth inhibition was seen”; (Example 3, lactam level of 10 μM (0.0002 wt. %) and above, 6 days) “very effective algal growth inhibition”.
